Source: patent US20240366543A1, “METHODS OF TREATING METHYLMALONIC ACIDEMIA AND PROPIONIC ACIDEMIA” (HemoShear Therapeutics, Inc., priority 2021, published 2024)
Converted amounts (≈) assume the structure as drawn. “And” between values parts separate entries of the source, which are not always exact repeats. Equal entries are not always repeated. Where two headings read alike, the source gives them in different places.

What was measured:
[1] = test system: primary hepatocytes (pHeps) from MMA donors; experiment: HemoShear REVEAL-Tx Technology, MMA pHeps; type: cell-based, human
[2] = test system: primary hepatocytes (pHeps) from PA donors; experiment: HemoShear REVEAL-Tx Technology, PA pHeps; type: cell-based, human
Source text: For this experiment, we deployed the HemoShear REVEAL-Tx™ technology, which is based on the cone-and-plate configuration or viscometer combined with a porous polycarbonate membrane that mimics a filtering layer of sinusoidal endothelial cells (see: Dash A, Deering TG, Marukian S, et al. Physiological Hemodynamics and Transport Restore Insulin and Glucagon Responses in a Normal Glucose Milieu in Hepatocytes In Vitro. 73rd Scientific Sessions of the American Diabetes Association, 2013 (Chicago), and U.S. Pat. Nos. 7,811,782 and 9,500,642, and 9,617,521, each of which is incorporated by reference herein in its entirety).
Hepatocytes from propionic academia patients are plated in a collagen gel sandwich on one side of the membrane replicating the polarized orientation found in vivo within the hepatic sinusoids. On the other side, medium is continuously perfused and surface shear rates are applied across a range of physiological values derived from sinusoidal flow rates in vivo while also controlling transport in the system with in- and out-flow tubing to each compartment. Effectively, this creates a flow-based culture system where hepatocytes are shielded from direct effects of flow, as they would be in vivo, but perfusion, nutrient gradients, and interstitial fluid movement are maintained.
Biomarker levels are normalized to cell counts and cell volume to account for differences in the number of cells plated for each donor. […] This is most likely due to the presence of ^12C-succinyl-CoA in the sample, which has the same mass. In experiments described below, M-CoA is labeled with ^13C to determine a more accurate percent reduction. Compound 5 reduced the C3 concentration and the C3/C2 ratio with an EC50 similar to that for the reduction in P-CoA (FIGS. 3C, 3D).

PA pHeps = experiment: Static cell culture, PA pHeps, low/high propiogenic media; type: cell-based, human; conditions: for % change at 30 μM, 13C-Propionyl-CoA (13C-P-CoA): static cell culture; for Percent change (30 μM), 12C-Acetyl-CoA / Percent change (30 μM), CoASH: static culture 1.5 h
Procedure: (§1) Unlike the HemoShear Technology, this assay is carried out without constant perfusion, utilizing cell culture media that was customized to mimic plasma levels of propiogenic sources (amino acids and ketoacids) in PA and MMA patients during periods of relative metabolic stability (low propiogenic media) and acute metabolic crisis (high propiogenic media). PA and MMA pHeps, in static cell culture, were treated with Compound 5 (concentrations ranging from 0.1 μM to 100 μM) for 30 minutes in low propiogenic media, followed by either a continuation of low propiogenic media or a switch to the high propiogenic media for 1 hour. The media used during the 1-hour incubation contained propiogenic SIL amino acids and ketoacids which are metabolized into labeled P-CoA and M-CoA in the cells. The SIL amino acids and ketoacids were a mix of ^13C and MeD8 labelling, but their catabolism produced a SIL P-CoA (denoted as ^13C—P-CoA for simplicity) with the same mass, independent of the type of SIL (also true for ^13C-M-CoA).

[3] = Phase 2 study preliminary plasma pharmacokinetics in PA/MMA subjects; type: in vivo, human; conditions: for C24 / concentration at 24 h: 24 hours post-dose; for C24: C24projected: ratio observed to projected; for AUC(0-t): read-out: AUC0-24 h; for concentration at 24 h: read-out: C24
Procedure: Part A is the dose escalation phase to assess the initial safety and to confirm the pharmacologic activity of Compound 5 in subjects with PA and MMA. Screening for eligibility took place within 28 days of enrollment. All subjects were initially evaluated during a 4-week run-in period followed by within-subject dose escalation of 3 doses (1, 3, and 10 mg/kg QD of sodium 2,2-dimethylbutanoate); dose escalation interval of 4 weeks) to check for improvement in disease-related biomarkers.
Plasma will be analyzed by liquid chromatography with tandem mass spectrometry (LC-MS/MS) with a lower limit of quantitation of 0.100 μg/mL. Samples collected for analyses of Compound 5 (plasma/serum/whole blood)] concentration may also be used to evaluate safety or efficacy aspects related to concerns arising during or after the study.
Preliminary pharmacokinetics (PK) data from the first two subjects of Study described in Examples 7-8 was evaluated at 1 mg/kg, 3 mg/kg and 10 mg/kg of Compound 5 dosed once daily (QD).

[4] = test system: primary hepatocytes of methylmalonic acidemia patients; experiment: Propionyl-CoA and methylmalonyl-CoA from 13C-labelled sources in MMA primary hepatocytes (Example 2); type: cell-based, human
Procedure: Primary hepatocytes isolated from livers of methylmalonic acidemia patients are treated with increasing doses of Compound 5 (0, 0.1, 0.3, 1, 3, 10, 30, 100 µM) for 30 min. After 30 minutes the cells are challenged with the different sources of P-CoA, which may include 13C-KIVA (1 mM), ^13C-isoleucine (3 mM), ^13C-threonine (5 mM), ^13C-methionine (5 mM), ^13C-heptanoate (100 μM), or ^13C-propionate (5 mM) for 60 minutes. At the end of the challenge period, media is removed and the cells are lysed with 70% MeCN and 0.1% TFA containing 100 μM of ethymalonyl-CoA as an internal standard and harvested. Cell lysates are processed for HTMS/MS analysis.

MMA pHeps = experiment: Static cell culture, MMA pHeps, low/high propiogenic media; type: cell-based, human; conditions: for Percent change (30 μM), 12C-Acetyl-CoA / Percent change (30 μM), CoASH: static culture 1.5 h
Procedure: as §1

[5] = PA pHeps, HemoShear Technology, average ± SD
[6] = PA pHeps, HemoShear Technology, exposed 6 days
[7] = 1 mg/kg QD, single dose, individual subjects 010-1001, 010-1002, preliminary
[8] = 1 mg/kg QD, steady-state, individual subjects
[9] = 3 mg/kg QD, steady-state, individual subjects
[10] = 10 mg/kg QD, steady-state, individual subjects
[11] = human, plasma, oral, 1 mg/kg, 1 mg/kg QD, steady-state, individual subjects
[12] = human, plasma, oral, 10 mg/kg, 10 mg/kg QD, steady-state, individual subjects
[13] = static cell culture, high propiogenic media
[14] = static cell culture, low propiogenic media

CCC(C)(C)C(=O)O [Compound 5, 2,2-dimethylbutyric acid]
average reduction in the C3/C2 ratio (log 2 fold change) ([1]; 30 μM): −2.2±0.2 log 2 fold change
% change at 30 μM, 2-Methylcitric acid (2MC) ([1]; average ± SD): −66.7±14.9%
% change at 30 μM, 12C-Acetyl-Carnitine (C2) ([1]; average ± SD): 44.6 ± 26.8%
% change at 30 μM, 12C-Methylmalonyl-CoA (M-CoA) ([1]; average ± SD): −55±6.6%
% change at 30 μM, 12C-Propionyl-Carnitine (C3) ([1]; average ± SD): −65.9±10.7%
% change at 30 μM, 12C-Propionyl-CoA (P-CoA) ([1]; average ± SD): −74.2±11.6%
Percent change at 30 μM, 12C-Acetyl-CoA ([1]; exposed 6 days): 13.5 ± 24.9%
Percent change at 30 μM, CoASH ([1]; exposed 6 days): −22.3 ± 22.3%
EC50 value for CoASH relative to EC50 value for reduction in disease biomarkers ([2]; HemoShear Technology, PA and MMA pHeps, 6 days): 10 fold
EC90 ([2]; Homo sapiens, Hepatocyte, exposure threshold used for comparison with clinical PK, read-out: estimated in vitro EC90): 2.32 mg/L (≈ 20 µM)
average reduction in the C3/C2 ratio (log 2 fold change) ([2]; PA pHeps, HemoShear Technology, 30 μM): −2.1±1.2 log 2 fold change
% change at 30 μM, 2-Methylcitric acid (2MC) [2, 5]: −78.6±12.9%
% change at 30 μM, 12C-Acetyl-Carnitine (C2) [2, 5]: 54 ± 80.6%
% change at 30 μM, 12C-Propionyl-Carnitine (C3) [2, 5]: −68.9±14.6% and −69.4 ± 16.2%
% change at 30 μM, 12C-Propionyl-CoA (P-CoA) [2, 5]: −78.8±10.9%
Percent change at 30 μM, 12C-Acetyl-CoA [2, 6]: 54 ± 80.6%
Percent change at 30 μM, CoASH [2, 6]: −31.3 ± 24.2%
% change at 30 μM, 13C-Propionyl-CoA (13C-P-CoA) (PA pHeps; high propiogenic media): −85.3±9.1%
% change at 30 μM, 13C-Propionyl-CoA (13C-P-CoA) (PA pHeps; low propiogenic media): −76.4±12.6%
Percent change (30 μM), 12C-Acetyl-CoA (PA pHeps; high propiogenic media): −27 ± 3.4%
Percent change (30 μM), CoASH (PA pHeps; high propiogenic media): −48 ± 14.3%
Percent change (30 μM), 12C-Acetyl-CoA (PA pHeps; low propiogenic media): −36.6 ± 13.5%
Percent change (30 μM), CoASH (PA pHeps; low propiogenic media): −55.2 ± 7.1%
AUC0-24 h [3, 7]: 22.8 µg·h/mL
Cmax [3, 7]: 1.74 µg/mL
C24 [3, 8]: 0.765 µg/mL
AUC0-24 h [3, 8]: 36.5 µg·h/mL
Cmax ([3]; 1 mg/kg QD, steady-state, individual subjects 010-1001, 010-1002): 2.93 µg/mL
C24: C24projected [3, 8]: 1.27 and 0.829
C24 [3, 9]: 3.34 µg/mL and 1.01 µg/mL
AUC0-24 h [3, 9]: 115 µg·h/mL
Cmax ([3]; 3 mg/kg QD, steady-state, individual subjects 010-1001, 010-1002): 11.4 µg/mL
C24: C24projected [3, 9]: 1.21 and 0.365
C24 [3, 10]: 13.1 µg/mL
AUC0-24 h [3, 10]: 678 µg·h/mL
Cmax ([3]; 10 mg/kg QD, steady-state, individual subjects 010-1001, 010-1002): 50.6 µg/mL
C24: C24projected [3, 10]: 0.985 and 1.42
AUC(0-t) ([3]; human, plasma, oral, 1 mg/kg, 1 mg/kg QD, single dose, individual subjects 010-1001, 010-1002, preliminary): 30.8 µg·h/mL
Cmax ([3]; human, plasma, oral, 1 mg/kg, 1 mg/kg QD, single dose, individual subjects 010-1001, 010-1002, preliminary, read-out: Cmax): 2.62 µg/mL
concentration at 24 h [3, 11]: 1.17 µg/mL
Cmax ([3]; human, plasma, oral, 1 mg/kg, 1 mg/kg QD, steady-state, individual subjects 010-1001, 010-1002, read-out: Cmax): 4.41 µg/mL
AUC(0-t) [3, 11]: 56.5 µg·h/mL
Cmax ([3]; human, plasma, oral, 3 mg/kg, 3 mg/kg QD, steady-state, individual subjects 010-1001, 010-1002, read-out: Cmax): 15.9 µg/mL
AUC(0-t) ([3]; human, plasma, oral, 3 mg/kg, 3 mg/kg QD, steady-state, individual subjects): 189 µg·h/mL
concentration at 24 h [3, 12]: 9.09 µg/mL
Cmax ([3]; human, plasma, oral, 10 mg/kg, 10 mg/kg QD, steady-state, individual subjects 010-1001, 010-1002, read-out: Cmax): 50.7 µg/mL
AUC(0-t) [3, 12]: 557 µg·h/mL
intracellular propionyl-CoA and methylmalonyl-CoA from all sources investigated [4]: dose-dependent reduction
% change at 30 μM, 13C-Methymalonic acid (MMA pHeps; [13]): −91 ± 4%
% change at 30 μM, 13C-Propionyl-CoA (13C-P-CoA) (MMA pHeps; [13]): −75.9±7.3%
% change at 30 μM, 12C-Methylmalonyl-CoA (13C-M-CoA) (MMA pHeps; [14]): −76.5±13.2%
% change at 30 μM, 13C-Methymalonic acid (MMA pHeps; [14]): −83.2 ± 5^ %
% change at 30 μM, 13C-Propionyl-CoA (13C-P-CoA) (MMA pHeps; [14]): −77.6±9.8%
Percent change (30 μM), 12C-Acetyl-CoA (MMA pHeps; high propiogenic media): −14.6 ± 12.6%
Percent change (30 μM), CoASH (MMA pHeps; high propiogenic media): −28.7 ± 7.3%
Percent change (30 μM), 12C-Acetyl-CoA (MMA pHeps; low propiogenic media): −35.5 ± 18.1%
Percent change (30 μM), CoASH (MMA pHeps; low propiogenic media): −47.7 ± 13.4%
